# Legend:
# [1] = biological target: T1, WT-ZAK (Homo sapiens, UniProt Q9NYL2); assay: gel-based ABPP with IA-rhodamine probe; type: binding; settings: 10, 50 and 100 μM, 30 min; HEK-293T lysate
# T1 construct: Full-length cDNA encoding human ZAK-13 (BC001401); expressed in transfected cells
# Excerpt: The gel signals for IA-labeling of WT-ZAK were blocked by pretreatment with HNE over a concentration range that closely matched the HNE-sensitivity profile observed for C22 in competitive isoTOP-ABPP experiments (FIG. 4b, compare to FIG. 3a). […] Considering further that C22 is predicted to reside adjacent to the ATP-binding loop of ZAK, we postulated that the HNE-induced loss of kinase activity might be due to blockade of ATP-binding.
# Full-length cDNA encoding human ZAK-13 (BC001401) in pOTB7 was purchased from Open BioSystems and subcloned into pFLAG-CMV-6c (Sigma-Aldrich). ZAK-C22A and ZAK-K45M mutants were generated by QuikChange site-directed mutagenesis using the primer 5′-[…]-3′ (SEQ ID NO:1) and 5′-[…]-3′ (SEQ ID NO:2) and their complements. Wild-type and mutant ZAK were cloned into a modified pCLNCX retroviral vector. Retrovirus was prepared by taking 3.0 μg of each of pCLNCX and pCL-Ampho vectors and […], of FuGENE IID reagent (Roche) to transfect 60% confluent HEK-293T cells. […]
# FLAG-tagged wild-type and C22A mutant ZAK were immunoprecipitated from HEK-293T cells ([…]). […] Gel samples were separated by SDS-PAGE (50 μL of sample/lane) and visualized in-gel using a Hitachi FMBio II flatbed laser-induced fluorescence scanner (MiraiBio, Alameda, Calif.). […]
# [2] = system: JNK pathway activation; assay: Western blotting of phospho-JNK in WT-ZAK-transfected HEK-293T cells; type: cell-based, human
# Protocol: (§1) We next set out to assess the functional effects of HNE modification of ZAK in human cells. HEK-293T cells were stably transfected with cDNAs for WT-ZAK, C22A-ZAK, or K45M-ZAK and the activation state of their MAPK signaling pathways was monitored by western blotting with anti-phosphoprotein antibodies. […] We next treated cells with H2O2 (1 mM, 30 min) to induce oxidative stress, a process that is known to activate the JNK pathway^41,42. H2O2 treatment stimulated JNK activity in both WT- and C22A-ZAK-transfected cells (but not K45M-ZAK-transfected cells), with WT-ZAK cells showing the greater level of activation (FIG. 5b,c). […] We interpret these findings to indicate the existence of both ZAK-dependent and ZAK-independent pathways for HNE modulation of JNK activation (FIG. 5d). By modifying C22 on ZAK, HNE blocks the contribution that this kinase makes to the activation of the JNK pathway. […]
# (§2) Mouse and rabbit monoclonal antibodies against phospho-ERK 1/2 (Thr202/Tyr204), phosphor-SAPK/JNK (Thr183/[…]), phosphor-p38 MAPK (Thr180/[…]) and total ERK 1/2, SAPK/JNK and p38 MAPK were purchased from Cell Signaling Technology. […] Protein band intensities were quantified by ImageJ8 and ratios of phosphor-MAPK over total MAPK were computed. […]
# [3] = system: JNK pathway activation; assay: Western blotting of phospho-JNK in C22A-ZAK-transfected HEK-293T cells; type: cell-based, human
# Protocol: as §1, §2
# [4] = pre-treatment 100 μM, 30 min, then H2O2 1 mM, 30 min
# T1 sequence (Q9NYL2 1-455 isoform Q9NYL2-2): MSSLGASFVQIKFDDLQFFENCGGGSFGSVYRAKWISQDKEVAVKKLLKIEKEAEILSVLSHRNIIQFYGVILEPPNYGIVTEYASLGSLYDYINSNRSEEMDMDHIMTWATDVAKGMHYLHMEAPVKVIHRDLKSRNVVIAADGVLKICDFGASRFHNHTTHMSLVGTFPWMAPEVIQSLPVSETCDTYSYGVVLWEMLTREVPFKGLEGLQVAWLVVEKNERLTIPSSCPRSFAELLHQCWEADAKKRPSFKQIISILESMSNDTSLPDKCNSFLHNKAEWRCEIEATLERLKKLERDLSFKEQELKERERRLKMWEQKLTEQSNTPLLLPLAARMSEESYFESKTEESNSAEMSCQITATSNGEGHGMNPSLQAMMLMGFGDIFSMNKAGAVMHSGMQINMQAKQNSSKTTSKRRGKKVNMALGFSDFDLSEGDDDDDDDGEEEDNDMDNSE
smiles,measurement,setting,value
"CCCCCC(O)/C=C/C=O (centres unmarked) [4-HNE, 4-Hydroxynonenal]",gel signals for IA-labeling of WT-ZAK after pretreatment,[1],blocked
same,"JNK activation by HNE alone, WT-ZAK-transfected cells","[2]; 50 or 100 μM, 60 min",mostly unaffected
same,"H2O2-dependent JNK activation, WT-ZAK cells",[2]; [4],blocking H2O2-dependent JNK activation
same,"JNK activation by HNE alone, C22A-ZAK-transfected cells","[3]; 50 or 100 μM, 60 min",dramatic concentration-dependent activation of JNK
same,"H2O2-dependent JNK activation, C22A-ZAK cells",[3]; [4],hyper-activating JNK activity

# Reference: US10782295B2, “Cysteine-reactive ligand discovery in proteomes” (THE SCRIPPS RESEARCH INSTITUTE, priority 2013, dated 2020)
